Measured values from patent US8946269B2, “Crystalline forms of a factor Xa inhibitor” (Portola Pharmaceuticals, Inc., priority 2010, dated 2015).

Experiments:
Format in all cases: physicochemical
[1] = Physical and chemical stability on storage
Excerpt: FIG. 10 provides XRPD patterns from turnover experiments. A is an XRPD of Form II.

[2] = Solubility at 25° C. (slurried in solvent 24 hours, liquid quantified by HPLC)
Excerpt: Solids were checked by XRPD and the liquid was submitted for quantification by HPLC.

pKa determination = conditions: amidine
Description: This can be performed on a Sirius GlpKa instrument with a D-PAS attachment. Measurements can be made by UV in aqueous and by potentiometric in methanol and water mixtures at 25° C. The titration media is ionic strength adjusted with 0.15 M KCl. The values found in the methanol and water mixtures are corrected to 0% co-solvent via a Yasuda-Shedlovsky extrapolation. The data can be refined using Refinement Pro software version 1.0. Prediction of pKa values can be made using ACD pKa prediction software Ver. 8.08.

Row | Structure (SMILES) | time remaining physically and chemically stable ([1]; 25° C. and 60% RH) | time remaining physically and chemically stable ([1]; 40° C. and 75% RH) | Solubility at 25° C. ([2]; Acetone) | Solubility at 25° C. ([2]; Anhydrous ethanol (0.03% water)) | Solubility at 25° C. ([2]; DMF) | Solubility at 25° C. ([2]; IPA) | Solubility at 25° C. ([2]; MTBE) | Solubility at 25° C. ([2]; MeOH, yellow solvate formed) | Solubility at 25° C. ([2]; in ethanol (summary table), listed as Betrixaban Maleate Form II) | pKa (pKa determination)
1 | COc1ccc(NC(=O)c2ccc(C(=N)N(C)C)cc2)c(C(=O)Nc2ccc(Cl)cn2)c1 [Form II] | at least 6 months | at least 6 months | 0.99 | 4.8 | >246 | 0.63 | 0.01 | 37.9 (yellow | 4.8 mg/mL in ethanol | 
2 | COc1ccc(NC(=O)c2ccc(C(=N)N(C)C)cc2)c(C(=O)Nc2ccc(Cl)cn2)c1 [Form I, reference compound] |  |  |  |  |  |  | 0.001 |  |  | 11.4
